{
  "source": "patent US20240003908A1",
  "about": "“POLYOL BIOMARKERS FOR CONGENITAL DISORDERS OF GLYCOSYLATION” (Mayo Foundation for Medical Education and Research, priority 2020, published 2024)",
  "type_in_all_cases": "in vivo, human",
  "key": {"[1]": {"test_system": "urine sorbitol", "assay": "Urine sorbitol (GC/MS) in a PMM2-CDG pediatric patient on oral epalrestat therapy", "protocol": "(§1) Clinical studies: Epalrestat was used as an N of 1 study for a single pediatric patient with PMM2-CDG. An open label, single patient compassionate use study designed to assess the safety and tolerability of oral epalrestat therapy in a child with PMM2-CDG. The patient received […]. Concomitant medications, vital signs, blood draw for serum chemistry and hematology, and blood levels of epalrestat were collected at each study visit during a 6 month period to evaluate the safety and tolerability of oral epalrestat therapy in a child with PMM2-CDG. The Nijmegen Pediatric CDG Rating Scale (NPCRS) assessment was administered at the start of the study and at 6 months. Urine polyols were collected at the start, at 4 months, and at 6 months of therapy, and were measured as described elsewhere (Jansen et al., Clin Chim Acta 1986, 157:277-294). Briefly, 200 μl urine specimens were spiked with a mixture of labeled internal standards, allowed to equilibrate, and evaporated. […] Specimens were analyzed by GC/MS, selected ion monitoring using ammonia chemical ionization and a stable isotope dilution method. In general, the following protocol was used: • Creatinine (CR) values (mg/dL) were determined for all samples. • Multiplication factors were calculated for each patient sample. • 100 μL of Polyol QC Mix for the QC Standard and 100 μL water were pipetted into a labeled 16×100 screw-cap glass tube. • 200 μL each of low control and high control were pipetted into corresponding labeled 16×100 mm screw-cap glass tubes. • 200 μL of each patient sample was pipetted into a corresponding labeled 16×100 mm screw cap glass tube. […]\n(§2) Urine sorbitol and mannitol levels also were quantified using similar processing of samples and GC/MS settings, monitoring ions specific for sorbitol and mannitol for peak area ratio calculations.\n(§3) Patient assessment: Prior to the first dose of epalrestat and at 1, 2, 3, 6, 8, 9, 12 months during treatment, concomitant medications and vital signs were recorded and the patient was evaluated using the NPCRS. […]"}, "[2]": {"test_system": "urine mannitol", "assay": "Urine mannitol (GC/MS) in a PMM2-CDG pediatric patient on oral epalrestat therapy", "conditions": "for urine mannitol level: before therapy 648.6, controls <20", "protocol": "as §1, §2, §3"}, "[3]": {"assay": "Epalrestat plasma pharmacokinetics (LC-MS/MS) in patient P1", "protocol": "Pharmacokinetics: Epalrestat plasma concentrations were measured using an LC-MS/MS assay that was validated according to principles outlined in FDA Guidance Documents. Epalrestat-d5 was utilized as the internal standard. The mass spectrometer was coupled to a Waters Acquity H class ultra-performance liquid chromatography system (Milford, MA). Data were acquired and analyzed with Waters MassLynx v4.1 software. The chromatographic separation of epalrestat and the internal standard was accomplished using an Agilent Infinity Lab Poroshell 120 EC-C18 column, 2.1×100 mm, 2.7 μm (ChromTech, Apple Valley, MN) with an Agilent Poroshell 120 EC-C18 precolumn, 2.1×5 mm, 2.7 μm (ChromTech). Plasma samples were analyzed after protein precipitation with methanol, concentration to dryness under nitrogen, and reconstitution in methanol:water (1:1 v/v). Pharmacokinetics were estimated by non-linear least squares regression using the program Phoenix WinNonlin."}},
  "note": "Where “and” joins values, the source holds several entries; their conditions need not be identical. Equal values may be shown once.",
  "data": [
    {"smiles": "CC(/C=C1\\SC(=S)N(CC(=O)O)C1=O)=C\\c1ccccc1", "note": "[epalrestat]", "values": [
      {"measurement": "urine sorbitol level", "setting": "[1]; 6 months of epalrestat therapy, prior to treatment 19.93, controls <5", "value": "6.2 mmol/mol creatinine and 6.20 mmol/mol creatinine"},
      {"measurement": "urine sorbitol level", "setting": "[1]; after 3 months of epalrestat therapy, before therapy 19.93, controls <5", "value": 5.78, "unit": "mmol/mol creatinine"},
      {"measurement": "urine sorbitol level", "setting": "[1]; after 4 months of epalrestat treatment, prior to treatment 19.93, controls <5", "value": 5.0, "unit": "mmol/mol creatinine"},
      {"measurement": "urine mannitol level", "setting": "[2]; 6 months of epalrestat therapy", "value": 25.09, "unit": "mmol/mol creatinine"},
      {"measurement": "urine mannitol level", "setting": "[2]; after 3 months of epalrestat therapy", "value": 37.32, "unit": "mmol/mol creatinine"},
      {"measurement": "urinary mannitol level", "setting": "[2]; at 4 months of epalrestat treatment, pretreatment 648.6, control less than 10", "value": 37.32, "unit": "mmol/mol creatinine"},
      {"measurement": "concentration at 8 h", "setting": "[3]; human, plasma, oral, 5 mg, patient P1, after eight hours, read-out: trough level before the next dose", "value": "23.4 ng/mL and 100 nM"},
      {"measurement": "AUC", "setting": "[3]; human, plasma, oral, patient P1, after a 5 mg dose, read-out: systemic exposure (AUC)", "value": 2.79, "unit": "µg·h/mL"},
      {"measurement": "half-life", "setting": "[3]; human, plasma, po, 5 mg, patient P1, oral dose, plasma, read-out: t½ (converted)", "value": "~1.04", "unit": "h"},
      {"measurement": "oral clearance", "setting": "[3]; patient P1, after a 5 mg dose", "value": 1.8, "unit": "L/h"},
      {"measurement": "time of peak concentration after administration", "setting": "[3]; patient P1, oral 0.27 mg/kg (5 mg) dose", "value": "one"},
      {"measurement": "peak concentration in plasma", "setting": "[3]; patient P1, oral 0.27 mg/kg (5 mg) dose, 0.27 mg/kg", "value": "1125 ng/ml and 3.5 μM"},
      {"measurement": "plasma concentration over time profile", "setting": "[3]; patient P1, oral dose", "value": "rapid absorption and elimination"},
      {"measurement": "t½", "setting": "[3]; patient P1, oral dose, plasma", "value": "1 to 2", "unit": "h"}
    ]}
  ]
}
